For assay [1], the system named is platelet aggregation. Conditions: hypertensive animals; H. Ostrowska et al., J. Cardiovasc. Pharmacol. 45 (2005); cited from earlier work.
Assay [2] deals with T1, Recombinant human cathepsin A (Homo sapiens, UniProt P10619).
T1 construct: Recombinant human cathepsin A (residues 29-480, with a C-terminal 10-His tag); 10-His (C); purchased R&D Systems 1049-SE
T1 sequence (P10619 29-326 limits assumed): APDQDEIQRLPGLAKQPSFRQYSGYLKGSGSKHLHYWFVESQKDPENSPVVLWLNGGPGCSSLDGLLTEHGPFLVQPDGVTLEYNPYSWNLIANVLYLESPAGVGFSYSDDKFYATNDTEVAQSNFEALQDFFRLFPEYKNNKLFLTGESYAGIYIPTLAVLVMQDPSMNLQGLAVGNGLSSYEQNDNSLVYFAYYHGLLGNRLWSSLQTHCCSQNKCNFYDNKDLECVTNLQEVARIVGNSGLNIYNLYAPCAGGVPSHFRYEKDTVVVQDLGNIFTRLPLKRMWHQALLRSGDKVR
T1 sequence (P10619 327-480 limits assumed): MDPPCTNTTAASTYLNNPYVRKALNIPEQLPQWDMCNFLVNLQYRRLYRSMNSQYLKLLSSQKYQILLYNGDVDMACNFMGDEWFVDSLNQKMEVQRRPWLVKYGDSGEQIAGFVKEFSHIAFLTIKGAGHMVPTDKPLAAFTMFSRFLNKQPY
The assay can be described thus: Cathepsin A inhibitory activity. The format is biochemical. The note with it: activated recombinant human cathepsin A 833 ng/ml, Bodipy FL-labeled bradykinin 2 μM, pH 5.5, 15 min room temperature.

pIC50: −log10 of the molar value.

Regarding `CC[C@@H](C)[C@@H](O)[C@H](C)C(=O)[C@H](C)/C=C(\C)C[C@H](C)[C@@H]1OC(=O)[C@H]1CC` [ebelactone B], the platelet aggregation result in assay [1] was “suppresses platelet aggregation”.

A word on the pIC50: it is −log10 of the IC50, conventionally taken in molar units. As to `CC(C)C[C@@H](CC(=O)O)NC(=O)c1cc(NC(=O)c2ccccc2)n(-c2ccccc2)n1` [Example 76, (S)-3-[(5-Benzoylamino-1-phenyl-1H-pyrazole-3-carbonyl)-amino]-5-methyl-hexanoic acid], the pIC50 in assay [2] was 4.66.

Turning to `O=C(O)C[C@H](NC(=O)c1cc(NC(=O)c2ccccc2)n(-c2ccccc2)n1)c1ccc(Cl)cc1Cl` [Example 67, (S)-3-[(5-Benzoylamino-1-phenyl-1H-pyrazole-3-carbonyl)-amino]-3-(2,4-dichloro-phenyl)-propionic acid], in assay [2], the pIC50 is 6.97.

Source of the values: patent publication US8962671B2, “Amino-substituted 3-heteroaroylamino-propionic acid derivatives and their use as pharmaceuticals” (Sanofi, priority 2011, dated 2015).
